Test results reported in US20250145630A1, “POLYMORPHS OF A PYRIDINYLIMIDAZO[1,2-B]PYRIDAZINE” (Cardurion Pharmaceuticals, Inc., priority 2023, published 2025).

Assays:
[1] = Dynamic vapor sorption (DVS); assay type: physicochemical
Procedure: Approximately 10-20 mg of sample was placed into a mesh vapor sorption balance pan and loaded into a DVS Intrinsic or Advantage dynamic vapor sorption balance by Surface Measurement Systems. The sample was subjected to a ramping profile from 40-90% relative humidity (RH) at 10% increments, maintaining the sample at each step until a stable weight had been achieved (dm/dt 0.004%, minimum step length 30 minutes, maximum step length 200 or 500 minutes) at 25° C. After completion of the sorption cycle, the sample was dried using the same procedure to 0% RH and then a second sorption cycle back to 40% RH. Two cycles were performed. The weight change during the sorption/desorption cycles were plotted, allowing for the hygroscopic nature of the sample to be determined.

[2] = Competitive slurrying of free base Forms A, B and C; assay type: physicochemical
Procedure: Competitive slurries were carried out at 20° C. and 60° C. using the following procedure: 1.5 mL slurries of Formula (I) were prepared in t-BME, acetone, ethanol, and 2-Me THF at 60° C. in 2 mL screw cap vials. The slurries were syringe filtered (0.45 μm PTFE filter) after ca. 1 hour to obtain saturated Formula (I) solutions. Ca. 0.6 mL of saturated solution was added to ca. 10 mg of free base Forms A, B, and C to form slurries. The experiments were agitated at either ambient temperature (ca. 20° C.) and 60° C. for 48 h.
After 48 h the slurries were isolated by centrifugation (nylon, 0.22 μm) and analyzed by XRPD. Where mixtures were observed competitive slurrying was continued until mixtures were no longer observed (21 days).

[3] = Seven day stability of Formula (I) Form C; assay type: physicochemical
[4] = Storage stability of Formula (I) Form C (long-term and accelerated); assay type: physicochemical; conditions: for Chemical Purity Assay: anhydrous; for Crystallinity: to Form C
Procedure: Formula (I) Form C was evaluated for stability (Table 16 and Table 17). The Form C was stored in polyethylene double bags sealed with Nylon lock ties, and inside a capped polyethylene container at Wilmington PharmaTech Company. The storage conditions were long-term condition 25° C./60% RH, or accelerated condition 40° C./75% RH. The samples were analyzed for appearance, assay, related substances, chiral purity, water content and crystallinity.

[5] = ambient temperature and humidity
[6] = system: CaMKII; conditions: CaMKII inhibitor, US publication no. 20220098207; cited from earlier work

What does the source list for `COc1ccnc(-c2cnc3ccc(-c4ccc(F)c(O[C@@H](C)Cn5cnnn5)c4)nn23)c1C#N` [Formula (I) Form C, (S)-2-(6-(3-((1-(1H-tetrazol-1-yl)propan-2-yl)oxy)-4-fluorophenyl)imidazo[1,2-b]pyridazin-3-yl)-4-methoxynicotinonitrile]?
hygroscopicity by DVS ([1]; 25° C.): slightly hygroscopic; Post-DVS XRPD analysis ([1]; after DVS): Form C was retained; uptake (DVS) ([1]; at 80% RH): 0.3%; Time until Form C was only detected polymorph ([2]; 60° C., 2-Me THF): 2 days; Time until Form C was only detected polymorph ([2]; 60° C., Ethanol): 2 days; Time until Form C was only detected polymorph ([2]; 60° C., acetone): 2 days; Time until Form C was only detected polymorph ([2]; 60° C., t-BME): 15 days; relative stability of free base polymorphs ([2]; all solvents tested, 20° C. and 60° C.): most stable polymorph; Time until Form C was only detected polymorph ([2]; ambient (ca. 20° C.), 2-Me THF): 9 days; Time until Form C was only detected polymorph ([2]; ambient (ca. 20° C.), Ethanol): 8 days; Time until Form C was only detected polymorph ([2]; ambient (ca. 20° C.), acetone): 2 days; Time until Form C was only detected polymorph ([2]; ambient (ca. 20° C.), t-BME): 21 days; HPLC Purity ([3]; 7 day, 25° C./60% RH): 99.0 % area; XRPD Analysis ([3]; 7 day, 25° C./60% RH): Form C; HPLC Purity ([3]; 7 day, 40° C./75% RH): 99.0 % area; XRPD Analysis ([3]; 7 day, 40° C./75% RH): Form C; HPLC Purity ([3]; 7 day, 80° C.): 98.9 % area; XRPD Analysis ([3]; 7 day, 80° C.): Form C; HPLC analysis, change in purity after 7 day stability ([3]; 7 day, all conditions): no loss in purity; XRPD analysis after 7 day stability ([3]; 7 day, all conditions): retained; Input Purity ([3]; before storage): 98.8 % area; Chiral Purity ([4]; 25° C./60% RH, 0 months): >99.9 area %; Description ([4]; 25° C./60% RH, 0 months): Off-white; Related Substances: Impurity #1 ([4]; 25° C./60% RH, 0 months): 0.05%; Related Substances: Impurity #2 ([4]; 25° C./60% RH, 0 months): 0.18%; Total Impurities ([4]; 25° C./60% RH, 0 months): 0.23%; Water ([4]; 25° C./60% RH, 0 months): 0.29%; Chemical Purity Assay ([4]; 25° C./60% RH, 0 months): 100.1 wt %; Crystallinity ([4]; 25° C./60% RH, 0 months): Conforms; Chiral Purity ([4]; 25° C./60% RH, 12 months): >99.9 area %; Description ([4]; 25° C./60% RH, 12 months): Off-white; Related Substances: Impurity #1 ([4]; 25° C./60% RH, 12 months): 0.05%; Related Substances: Impurity #2 ([4]; 25° C./60% RH, 12 months): 0.18%; Total Impurities ([4]; 25° C./60% RH, 12 months): 0.23%; Water ([4]; 25° C./60% RH, 12 months): 0.32%; Chemical Purity Assay ([4]; 25° C./60% RH, 12 months): 99.4 wt %; Crystallinity ([4]; 25° C./60% RH, 12 months): Conforms; Chiral Purity ([4]; 25° C./60% RH, 24 months): >99.9 area %; Description ([4]; 25° C./60% RH, 24 months): Off-white; Related Substances: Impurity #1 ([4]; 25° C./60% RH, 24 months): 0.05%; Related Substances: Impurity #2 ([4]; 25° C./60% RH, 24 months): 0.18%; Total Impurities ([4]; 25° C./60% RH, 24 months): 0.23%; Water ([4]; 25° C./60% RH, 24 months): 0.35%; Chemical Purity Assay ([4]; 25° C./60% RH, 24 months): 99.4 wt %; Crystallinity ([4]; 25° C./60% RH, 24 months): Conforms; B. Unidentified Impurities (RRT: %), first listed ([4]; 40° C./75% RH, 0 months): 0.07%; B. Unidentified Impurities (RRT: %), second listed ([4]; 40° C./75% RH, 0 months): 0.05%; Chiral Purity ([4]; 40° C./75% RH, 0 months): >99.9 area %; Description ([4]; 40° C./75% RH, 0 months): Off-white; Related Substances: Impurity #1 ([4]; 40° C./75% RH, 0 months): 0.09%; Related Substances: Impurity #2 ([4]; 40° C./75% RH, 0 months): 0.19%; Related Substances: Impurity #3 ([4]; 40° C./75% RH, 0 months): <0.05%; Total Impurities ([4]; 40° C./75% RH, 0 months): 0.40%; Water ([4]; 40° C./75% RH, 0 months): 0.36%; Chemical Purity Assay ([4]; 40° C./75% RH, 0 months): 99.6 wt %; Crystallinity ([4]; 40° C./75% RH, 0 months): Conforms; B. Unidentified Impurities (RRT: %), first listed ([4]; 40° C./75% RH, 6 months): 0.06%; B. Unidentified Impurities (RRT: %), second listed ([4]; 40° C./75% RH, 6 months): 0.06%; Chiral Purity ([4]; 40° C./75% RH, 6 months): >99.9 area %; Description ([4]; 40° C./75% RH, 6 months): Off-white; Related Substances: Impurity #1 ([4]; 40° C./75% RH, 6 months): 0.08%; Related Substances: Impurity #2 ([4]; 40° C./75% RH, 6 months): 0.19%; Related Substances: Impurity #3 ([4]; 40° C./75% RH, 6 months): 0.05%; Total Impurities ([4]; 40° C./75% RH, 6 months): 0.44%; Water ([4]; 40° C./75% RH, 6 months): 0.15%; Chemical Purity Assay ([4]; 40° C./75% RH, 6 months): 99.3 wt %; Crystallinity ([4]; 40° C./75% RH, 6 months): Conforms; B. Unidentified Impurities (RRT: %), first listed ([4]; 40° C./75% RH, 12 months): 0.06%; Chiral Purity ([4]; 40° C./75% RH, 12 months): >99.9 area %; Description ([4]; 40° C./75% RH, 12 months): Off-white; Related Substances: Impurity #1 ([4]; 40° C./75% RH, 12 months): 0.08%; Related Substances: Impurity #2 ([4]; 40° C./75% RH, 12 months): 0.19%; Related Substances: Impurity #3 ([4]; 40° C./75% RH, 12 months): <0.05%; Total Impurities ([4]; 40° C./75% RH, 12 months): 0.33%; Water ([4]; 40° C./75% RH, 12 months): 0.49%; Chemical Purity Assay ([4]; 40° C./75% RH, 12 months): 99.6 wt %; Crystallinity ([4]; 40° C./75% RH, 12 months): Conforms

With `COc1ccnc(-c2cnc3ccc(-c4ccc(F)c(O[C@@H](C)Cn5cnnn5)c4)nn23)c1C#N.O=C(O)C(O)C(O)C(=O)O` as the compound, how does the “form conversion on standing” value [5] read?
Its value is “converted to L-tartaric acid co-crystal Form 2”.

For `COc1ccnc(-c2cnc3ccc(-c4ccc(F)c(O[C@@H](C)Cn5cnnn5)c4)nn23)c1C#N` [Example 321, (S)-2-(6-(3-((1-(1H-tetrazol-1-yl)propan-2-yl)oxy)-4-fluorophenyl)imidazo[1,2-b]pyridazin-3-yl)-4-methoxynicotinonitrile], which IC50 [6] is on record?
Its IC50 is less than 10 nM.
